Assay [1] has as its target GDP-bound NRAS wild-type protein (Homo sapiens, UniProt P01111). The experiment in a line: Binding to NRAS by surface plasmon resonance (SPR), Single Cycle Kinetics. As to conditions: SPR; for NRAS/KRAS (ratio of KD value with respect to NRAS to KD value with respect to KRAS) / NRAS/KRAS (ratio of KD value for NRAS to KD value for KRAS): GDP-bound NRAS wild-type vs GDP-bound KRAS wild-type. For orientation: Surface plasmon resonance follows binding to a sensor surface in real time, without labels.

In assay [2] the target is GDP-bound HRAS wild-type protein (Homo sapiens, UniProt P01112). The experiment in a line: Binding to HRAS by surface plasmon resonance (SPR), Single Cycle Kinetics. The settings on record: SPR; for HRAS/KRAS (ratio of KD value with respect to HRAS to KD value with respect to KRAS) / HRAS/KRAS (ratio of KD value for HRAS to KD value for KRAS): GDP-bound HRAS wild-type vs GDP-bound KRAS wild-type.
Sequence of GDP-bound HRAS wild-type protein (P01112 whole entry): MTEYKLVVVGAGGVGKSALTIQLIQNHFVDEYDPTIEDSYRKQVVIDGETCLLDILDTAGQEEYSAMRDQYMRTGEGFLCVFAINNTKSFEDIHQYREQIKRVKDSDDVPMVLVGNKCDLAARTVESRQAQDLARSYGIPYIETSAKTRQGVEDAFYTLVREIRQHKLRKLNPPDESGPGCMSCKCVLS

Where a SMILES comes first, the peptide text is derived from it. Bridges are numbered along the chain shown (N, C = ends). [ ]: non-standard residue; d: D form. The star is where a group is joined. hPhe(3-Cl-4-CF3) = N[C@@H](CCc1ccc(C(F)(F)F)c(Cl)c1)C(=O)O; NPrPhe(4-CF3) = CCCN[C@@H](Cc1ccc(C(F)(F)F)cc1)C(=O)O; NMeGly(cPent) = CN[C@H](C(=O)O)C1CCCC1; Pro(4,4-F2) = O=C(O)[C@@H]1CC(F)(F)CN1; Ac4c(3,3-Me2) = CC1(C)CC(N)(C(=O)O)C1; NMeD = CN[C@@H](CC(=O)O)C(=O)O; NMeL = CN[C@@H](CC(C)C)C(=O)O; Morpholide = C1CN(*)CCO1; NMeA = CN[C@@H](C)C(=O)O; Ac5c = NC1(C(=O)O)CCCC1; Aze = O=C(O)[C@@H]1CCN1; Sar = CNCC(=O)O; Propyl = CCC*

Sequence of GDP-bound NRAS wild-type protein (P01111 whole entry): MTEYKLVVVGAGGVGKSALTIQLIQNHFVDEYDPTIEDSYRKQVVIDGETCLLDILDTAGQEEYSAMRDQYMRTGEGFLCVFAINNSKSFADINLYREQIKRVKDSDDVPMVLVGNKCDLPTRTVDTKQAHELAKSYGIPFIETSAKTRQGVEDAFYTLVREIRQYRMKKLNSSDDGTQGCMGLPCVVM

As for `CCCN1C(=O)[C@@H]2CCN2C(=O)[C@H](C)N(C)C(=O)[C@H]([C@@H](C)CC)NC(=O)[C@H](CC(C)C)N(C)C(=O)C[C@@H](C(=O)N2CCOCC2)NC(=O)[C@H](C2CCCC2)N(C)C(=O)C2(CCCC2)NC(=O)[C@@H]2CC(F)(F)CN2C(=O)[C@H](CCc2ccc(C(F)(F)F)c(Cl)c2)NC(=O)CN(C)C(=O)[C@@H]1Cc1ccc(C(F)(F)F)cc1` [PP0345] ([NMeL]I[NMeA][Aze][NPrPhe(4-CF3)][Sar][hPhe(3-Cl-4-CF3)][Pro(4,4-F2)][Ac5c][NMeGly(cPent)]D-Morpholide; lactam N-11), the “NRAS/KRAS (ratio of KD for GDP-bound NRAS wild-type to KD for KRAS)” value in assay [1] (KD ratio NRAS/KRAS) was “C (A compound having a KD ratio of 0.1 or more and less than 3 is denoted as C)”. The “HRAS/KRAS (ratio of KD for GDP-bound HRAS wild-type to KD for KRAS)” value in assay [2] (KD ratio HRAS/KRAS) is “B (a compound having 3 or more and less than 10 is denoted as B)”.
For `CCO[C@@H]1C[C@H]2C(=O)NC3(CCC3)C(=O)N(C)[C@@H](C3CCCC3)C(=O)N(C)[C@H](C(=O)N(C)C)CC(=O)N(C)[C@@H](C(C)C)C(=O)N[C@@H]([C@@H](C)CC)C(=O)N(C)CC(=O)N(C)[C@H]3C/C=C\CCN(C3=O)[C@@H](Cc3ccc(C(F)(F)F)cc3)C(=O)N(C)CC(=O)N[C@@H](CCc3cc(F)c(C(F)(F)F)c(F)c3)C(=O)N2C1` [PP1109], in assay [1], the “NRAS/KRAS (ratio of KD value with respect to NRAS to KD value with respect to KRAS)” value was “A (a compound having 10 or more and less than 20 is denoted as A)”. In addition, in assay [2], the “HRAS/KRAS (ratio of KD value with respect to HRAS to KD value with respect to KRAS)” value was “B (a compound having 3 or more and less than 10 is denoted as B)”.
Consider `CCO[C@@H]1C[C@H]2C(=O)NC3(CCCC3)C(=O)N(C)[C@@H](C3CCCC3)C(=O)N(C)[C@H](C(=O)N(C)C)CC(=O)N(C)[C@@H](C)C(=O)N[C@@H]([C@@H](C)CC)C(=O)N(C)CC(=O)N(C)[C@H]3C/C=C\CCN(C3=O)[C@@H](Cc3ccc(C(F)(F)F)cc3)C(=O)N(C)CC(=O)N[C@@H](CCc3cc(F)c(C(F)(F)F)c(F)c3)C(=O)N2C1` [PP1104], for which the “NRAS/KRAS (ratio of KD value with respect to NRAS to KD value with respect to KRAS)” value in assay [1] was “A (a compound having 10 or more and less than 20 is denoted as A)”. The “HRAS/KRAS (ratio of KD value with respect to HRAS to KD value with respect to KRAS)” value in assay [2] was “A (a compound having 10 or more and less than 20 is denoted as A)”.
For `CCCO[C@H](C)[C@@H]1NC(=O)[C@H](CC(C)C)N(C)C(=O)C[C@@H](C(=O)N2CCOCC2)N(C)C(=O)[C@H](C2CCCC2)N(C)C(=O)C2(CC(C)(C)C2)NC(=O)[C@@H]2CCCN2C(=O)[C@H](CCc2ccc(C(F)(F)F)c(Cl)c2)NC(=O)CN(C)C(=O)[C@H](Cc2ccc(C(F)(F)F)cc2)N(CCC)C(=O)CN(C)C(=O)CN(C)C1=O` [PP1965] ([NMeL]T(Propyl)[Sar][Sar][NPrPhe(4-CF3)][Sar][hPhe(3-Cl-4-CF3)]P[Ac4c(3,3-Me2)][NMeGly(cPent)][NMeD]-Morpholide; lactam N-11), in assay [1], the “NRAS/KRAS (ratio of KD value for NRAS to KD value for KRAS)” value is “B (a compound having 3 or more and less than 10 is denoted as B)”. Besides, in assay [2], the “HRAS/KRAS (ratio of KD value for HRAS to KD value for KRAS)” value is “B (a compound having 3 or more and less than 10 is denoted as B)”.
In the case of `CCO[C@@H]1C[C@H]2C(=O)NC3(CCC3)C(=O)N(C)[C@@H](C3CCCC3)C(=O)N(C)[C@H](C(=O)N3CCOCC3)CC(=O)N(C)[C@@H](CC(C)(C)C)C(=O)N[C@@H]([C@@H](C)CC)C(=O)N(C)CC(=O)N(C)[C@H]3CCCCN(C3=O)[C@@H](Cc3ccc(C(F)(F)F)cc3)C(=O)N(C)CC(=O)N[C@@H](CCc3cc(F)c(C(F)(F)F)c(F)c3)C(=O)N2C1` [PP0714], the “NRAS/KRAS (ratio of KD value with respect to GDP-bound NRAS wild-type protein to KD value with respect to KRAS)” value in assay [1] (KD ratio NRAS/KRAS) was “C (A compound having a KD ratio of 0.1 or more and less than 3 is denoted as C)”. The “HRAS/KRAS (ratio of KD value with respect to GDP-bound HRAS wild-type protein to KD value with respect to KRAS)” value in assay [2] (KD ratio HRAS/KRAS) is “B (a compound having 3 or more and less than 10 is denoted as B)”.
With `CCO[C@@H]1C[C@H]2C(=O)NC3(CCC3)C(=O)N(C)[C@@H](C3CCCC3)C(=O)N(C)[C@H](C(=O)N3CCOCC3)CC(=O)N(C)[C@@H](Cc3ccc(Cl)c(Cl)c3)C(=O)N[C@@H]([C@@H](C)CC)C(=O)N(C)CC(=O)N(C)[C@H]3CCCCCN(C3=O)[C@@H](Cc3ccc(C(F)(F)F)cc3)C(=O)N(C)CC(=O)N[C@@H](CCc3cc(F)c(C(F)(F)F)c(F)c3)C(=O)N2C1` [PP1168], the “NRAS/KRAS (ratio of KD value with respect to NRAS to KD value with respect to KRAS)” value in assay [1] is “A (a compound having 10 or more and less than 20 is denoted as A)”. The “HRAS/KRAS (ratio of KD value with respect to HRAS to KD value with respect to KRAS)” value in assay [2] was “A (a compound having 10 or more and less than 20 is denoted as A)”.
For `CCCOC[C@H]1C(=O)N[C@@H]([C@@H](C)CC)C(=O)N(C)CC(=O)N(C)[C@H]2C/C=C\CCN(C2=O)[C@@H](Cc2ccc(C(F)(F)F)cc2)C(=O)N(C)CC(=O)N[C@@H](CCc2cc(F)c(C(F)(F)F)c(F)c2)C(=O)N2CC(F)(F)C[C@H]2C(=O)NC2(CC(C)(C)C2)C(=O)N(C)[C@@H](C2CCCC2)C(=O)N(C)[C@H](C(=O)N(C)C)CC(=O)N1C` [PP1718], the “NRAS/KRAS (ratio of KD value for NRAS to KD value for KRAS)” value in assay [1] is “AA (a compound having 20 or more is denoted as AA)”. For the same molecule, the “HRAS/KRAS (ratio of KD value for HRAS to KD value for KRAS)” value in assay [2] is “A (a compound having 10 or more and less than 20 is denoted as A)”.

These data come from patent publication US20250230193A1, “CYCLIC COMPOUND HAVING SELECTIVE KRAS INHIBITORY EFFECT ON HRAS AND NRAS” (CHUGAI SEIYAKU KABUSHIKI KAISHA, priority 2022, published 2025).
